The values that follow come from patent US10363262B1, “Composition for treating wound comprising gypenoside LXXV” (Intelligent Synthetic Biology Center, priority 2018, dated 2019).

For data set [1], the system named is CTGF. Put plainly: ELISA assay of CTGF production by human dermal fibroblasts. Type of data set: cell-based. The conditions noted are these: supernatant of human dermal fibroblasts. Background: ELISA stands for enzyme-linked immunosorbent assay.
The conditions of data set [2]: compared with ginsenosides having a large size (about 1,000 Da); cited from earlier work.
The test system of data set [3] is excision wound mouse model. Put plainly: in vivo wound closure activity in excision wound mouse model. The conditions noted are these: ICR mice, once a day for 9 days, topical. As for the experimental part:
The in vivo wound closure activity was measured in an excision wound mouse model.
Eight-week-old male ICR mice were purchased from Narabiotech (Korea), acclimatized for one week, and used in the experiment. Two full-thickness circular wounds (diameter: 5 mm) were created on the dorsal region of each mouse, and the progressive changes in wound closure were measured relative to the original wound area. G75 (5 μM/wound) or MA (10 μM/wound) was then applied on each wound area once a day for 9 days. DMSO-propylene glycol was used as a vehicle control.

Data set [4] concerns HaCaT keratinocytes. Put plainly: MTT analysis of proliferation of HaCaT keratinocytes. Type of data set: cell-based. The conditions noted are these: 48 hours. As for the experimental part: HaCaT keratinocytes were treated with major ginsenosides (e.g., Rb1, Rd, Re, and Rg1) and other ginsenosides (e.g., C-K, F1, F2, G17, G75, PPD, PPT, Rg2, Rg3, Rh1, and Rh2) at a concentration of 0.01 μM to 20 μM for 48 hours and then subjected to MTT analysis (FIG. 1A). As the control group, DMSO was used.

The test system of data set [5] is dorsal excisional wound tissue. Put plainly: RNA sequencing of dorsal excisional wound tissue. Type of data set: in vivo, mouse. The conditions noted are these: third day after treatment; p 0.05 or below and change of 1.7-fold or greater. The procedure: (§1) To examine the process of G75 involvement in wound recovery, RNA sequencing was performed. After creating an excision wound on the dorsal area of each mouse, the wound was treated with G75 or the vehicle control, and RNA was isolated from the dorsal excisional wound tissue on the third day after the treatment and analyzed. When the p value was 0.05 or below and there was a change of 1.7-fold or greater, the change was considered to significant.

Data set [6] has as its system HaCaT keratinocytes. Put plainly: non-radioactive cell proliferation assay, HaCaT keratinocytes. Type of data set: cell-based. As for the experimental part: (§2) Each cell was seeded into a 96-well plate and cultured at 37° C. for 48 hours. The cultured cells were treated with G75, MA, or DMSO at a concentration of 5 μM or 10 μM. After 48 hours, the proliferation of these cells was confirmed using the non-radioactive cell proliferation assay kit (Promega, WI, USA), and migration of these cells was confirmed in the same manner as in Example 1-2 (FIG. 2).

In a further data set the test system is CTGF protein. Put plainly: western blot of CTGF protein in wound skin tissue. The settings on record: after 3 days. It counts as in vivo, mouse. As for the experimental part:
To examine whether the G75 treatment increases the expression level of CTGF protein, each wound was treated with G75, and after 3 days, the skin tissue was collected and subjected to western blot.
Background: A western blot detects proteins with antibodies after separation by electrophoresis.

The test system of data set [7] is HaCaT keratinocytes. Put plainly: scratch wound closure assay (migration of HaCaT keratinocytes). Type of data set: cell-based. The procedure: Specifically, HaCaT keratinocytes were cultured in a 6-well plate and the plate was scratched using a 200 μL micropipette tip. The remainder was washed with PBS and the cells were cultured for 24 hours, treated with 10 μM ginsenoside or DMSO, and the gap regions were measured (FIG. 1B).
as §2

Another data set concerns Vegf alpha. Nature of the data set: RNA sequencing, growth factor mRNA level in wound tissue. Type of data set: in vivo, mouse. The conditions noted are these: third day after treatment, versus vehicle control. The procedure:
as §1
(§3) To confirm the effect of G75 on the growth factors involved in wound healing, the mRNA levels of growth factors were measured based on the results of RNA sequencing analysis.

Another data set has as its system Fgf2. The data set is described as above. The conditions noted are these: third day after treatment, versus vehicle control. Type of data set: in vivo, mouse. The procedure:
as §1, §3

A further data set has as its system Hgf. The description is as above. Type of data set: in vivo, mouse. The conditions noted are these: third day after treatment, versus vehicle control. The procedure: as §1, §3
Data set [8] deals with CTGF. The description is as above. Type of data set: in vivo, mouse. The conditions noted are these: third day after treatment, versus vehicle control. The procedure:
as §1, §3

The subject of the next data set is Tgf alpha. The data set is described as above. Type of data set: in vivo, mouse. The conditions noted are these: third day after treatment, versus vehicle control. The procedure: as §1, §3
A further data set has as its system Csf2. The data set is described as above. Type of data set: in vivo, mouse. The settings on record: third day after treatment, versus vehicle control. The procedure: as §1, §3
The next data set relates to Hbegf. The data set is described as above. It counts as in vivo, mouse. The settings on record: third day after treatment, versus vehicle control. The procedure:
as §1, §3

The test system of the next data set is Angpt1. Described as above. Type of data set: in vivo, mouse. The conditions noted are these: third day after treatment, versus vehicle control. As for the experimental part: as §1, §3
A further data set deals with Tgf beta1. The description is as above. It counts as in vivo, mouse. The settings on record: third day after treatment, versus vehicle control. As for the experimental part: as §1, §3
Another data set deals with Igf1. The data set is described as above. Type of data set: in vivo, mouse. The conditions noted are these: third day after treatment, versus vehicle control. The procedure:
as §1, §3

Another data set relates to Fgf7. Described as above. It counts as in vivo, mouse. The conditions noted are these: third day after treatment, versus vehicle control. The procedure:
as §1, §3

The test system of another data set is Fgf10. The data set is described as above. Type of data set: in vivo, mouse. The settings on record: third day after treatment, versus vehicle control. As for the experimental part: as §1, §3
Data set [9] relates to human dermal fibroblasts. Nature of the data set: non-radioactive cell proliferation assay, human dermal fibroblasts. It counts as cell-based. The settings on record: 10 μM, 48 hours. As for the experimental part: as §2
The test system of data set [10] is human dermal fibroblasts. Nature of the data set: proliferation of human dermal fibroblasts treated with CTGF. Type of data set: cell-based.

For the molecule `CC(C)=CCC[C@](C)(O[C@@H]1O[C@H](CO[C@@H]2O[C@H](CO)[C@@H](O)[C@H](O)[C@H]2O)[C@@H](O)[C@H](O)[C@H]1O)[C@H]1CC[C@]2(C)[C@@H]1[C@H](O)C[C@@H]1[C@@]3(C)CC[C@H](O)C(C)(C)[C@@H]3CC[C@]12C` [G75, gypenoside LXXV], in the data set with CTGF [1], the “amount of CTGF production” value was “increased the amount of CTGF production”. In data set [2], the “in vivo absorption rate” value was “greater in vivo absorption rate”. Also, the “wound area compared to vehicle control” value in data set [3] (5 μM/wound) is on record as “wound areas became smaller”. Further, in the data set with HaCaT keratinocytes [4] (0.01 μM to 20 μM, DMSO control), the “cell proliferation effect relative to the control group” value was “about 136.8%”. Also, in the data set on HaCaT keratinocytes [4] (0.01 μM to 20 μM, compared to other ginsenosides / control), the cell proliferation effect entry is listed as “highest cell proliferation effect”. For the same molecule, the “concentration at which the highest cell proliferation effect was shown” value with HaCaT keratinocytes [4] amounted to 10 µM. Besides, the “number of genes whose expression level was changed” value in data set [5] was found to be 1048. Also, the “effects compared with MA at the same concentration” value in the data set with HaCaT keratinocytes [6] (cell proliferation and cell migration, HaCaT keratinocytes and human dermal fibroblasts) is “superior effects to MA”. Further, in the data set on CTGF protein, the “expression level of CTGF protein” value was “significantly increased”. Besides, the cell migration entry in the data set on HaCaT keratinocytes [7] (Example 2-1, 5 μM) is listed as “significant effect”; in the data set with HaCaT keratinocytes [7] (Example 2-1, 10 μM) it was “significant effect”. The “migration effect (gap regions)” value in the data set on HaCaT keratinocytes [7] (HaCaT keratinocytes, 10 μM, compared to DMSO control) is given as “highest migration effect”. For the same molecule, the “Fold change Vegf alpha mRNA” value in the data set with Vegf alpha stood at 1.281. Also, in the data set on Fgf2, the “Fold change Fgf2 mRNA” value is 8.143. In the data set on Hgf, the “Fold change Hgf mRNA” value is 1.191. In the data set on CTGF [8], the “Fold change CTGF mRNA” value is 1.879. In addition, in the data set with Tgf alpha, the “Fold change Tgf alpha mRNA” value is listed as 1.504. In addition, in the data set on Csf2, the “Fold change Csf2 mRNA” value was determined as 5.545. The “Fold change Hbegf mRNA” value in the data set on Hbegf came out at 1.267. Moreover, the “Fold change Angpt1 mRNA” value with Angpt1 is on record as 1.796. The “Fold change Tgf beta1 mRNA” value with Tgf beta1 stood at 1.392. In addition, the “Fold change Igf1 mRNA” value in the data set on Igf1 is recorded as 1.367. In addition, the “Fold change Fgf7 mRNA” value with Fgf7 came to 1.789. Besides, the “Fold change Fgf10 mRNA” value in the data set on Fgf10 is 1.750.
With madecassoside [reference compound], the “wound area compared to vehicle control” value in data set [3] (10 μM/wound) was “wound areas became smaller”. In addition, the cell proliferation result was “slight effect” in the data set with HaCaT keratinocytes [6] (HaCaT keratinocytes, 10 μM, 48 hours) and “slight effect” in the data set on human dermal fibroblasts [9].

B1: CTGF: connective tissue growth factor, applied to human dermal fibroblasts (protein, UniProt P29279 27-349, looked up)
CCN family member 2: QNCSGPCRCPDEPAPRCPAGVSLVLDGCGCCRVCAKQLGELCTERDPCDPHKGLFCHFGSPANRKIGVCTAKDGAPCIFGGTVYRSGESFQSSCKYQCTCLDGAVGCMPLCSMDVRLPSPDCPFPRRVKLPGKCCEEWVCDEPKDQTVVGPALAAYRLEDTFGPDPTMIRANCLVQTTEWSACSKTCGMGISTRVTNDNASCRLEKQSRLCMVRPCEADLEENIKKGKKCIRTPKISKPIKFELSGCTSMKTYRAKFCGVCTDGRCCTPHRTTTLPVEFKCPDGEVMKKNMMFIKTCACHYNCPGDNDIFESLYYRKMYGDMA
Turning to B1, in the data set with human dermal fibroblasts [10], the “proliferation compared to the vehicle control” value is recorded as “higher level of proliferation”.
